In ChEMBL document CHEMBL4823289, “Conformational-Analysis-Guided Discovery of 2,3-Disubstituted Pyridine IDO1 Inhibitors” (ACS Med Chem Lett, 2021):

Key:
[1] = Clearance in rat at 0.5 mg/kg, iv; assay type: ADME, organism-based; details: in vivo
[2] = biological target: T1, Indoleamine 2,3-dioxygenase 1 (Homo sapiens, UniProt P14902); assay: Inhibition of IDO1 in IFNgamma-stimulated human HeLa cells preincubated for 2 hrs followed by recombinant human IFNgamma stimulation and measured after 18 hrs by fluorescence based microplate reader assay
T1 sequence (P14902 whole entry): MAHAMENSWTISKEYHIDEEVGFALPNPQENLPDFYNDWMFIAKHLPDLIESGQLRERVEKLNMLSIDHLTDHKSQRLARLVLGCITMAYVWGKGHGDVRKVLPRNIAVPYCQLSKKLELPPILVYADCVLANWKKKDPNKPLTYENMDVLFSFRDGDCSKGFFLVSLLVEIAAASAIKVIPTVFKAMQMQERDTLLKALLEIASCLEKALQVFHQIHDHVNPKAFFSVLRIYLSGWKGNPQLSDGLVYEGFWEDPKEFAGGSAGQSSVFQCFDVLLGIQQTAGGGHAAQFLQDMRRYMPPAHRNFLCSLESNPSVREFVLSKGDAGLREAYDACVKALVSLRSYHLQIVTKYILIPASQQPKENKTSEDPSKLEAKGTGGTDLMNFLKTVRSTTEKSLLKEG

Cytochrome P450 (CYP) [3] = assay: Metabolic stability assessed as dog CYP-mediated metabolism by measuring half life; assay type: ADME, Canis lupus familiaris
[4] = Half life in dog at 1 mg/kg, iv; assay type: ADME, organism-based, Canis lupus familiaris; details: in vivo
[5] = Apparent permeability of the compound at pH 7.4 by PAMPA; assay type: ADME
[6] = AUC (0 to 24 hrs) in human SK-OV-3 cells xenografted in nu/nu mouse xenograft model measured in tumor at 120 mg/kg, po QD; assay type: ADME, organism-based; parameters: time < 24 hr, route oral, dose 120 mg/kg
[7] = Volume of steady state distribution in cynomolgus monkey at 1 mg/kg, iv; assay type: ADME, organism-based, Macaca fascicularis; details: in vivo, read-out: Vdss
[8] = Drug metabolism in human hepatocytes assessed as demethylated metabolite formation; assay type: ADME, cell-based, Hepatocyte
[9] = tested on: UDP-glucuronosyltransferases (UGT); assay: Metabolic stability assessed as rat UGT-mediated metabolism by measuring half life; assay type: ADME
[10] = Half life in cynomolgus monkey at 1 mg/kg, iv; assay type: ADME, organism-based, Macaca fascicularis; details: in vivo
[11] = AUC in rat at 0.5 mg/kg, iv; assay type: ADME, organism-based; parameters: dose 0.5 mg/kg; details: in vivo
[12] = biological target: Indoleamine 2,3-dioxygenase 1 (Mus musculus, UniProt P28776); assay: Inhibition of IDO1 in IFNgamma-stimulated mouse M109 cells preincubated for 2 hrs followed by recombinant murine IFNgamma stimulation and measured after 18 hrs by fluorescence based microplate reader assay; assay type: cell-based
Sequence of Indoleamine 2,3-dioxygenase 1 (Mus musculus, UniProt P28776) (P28776 whole entry): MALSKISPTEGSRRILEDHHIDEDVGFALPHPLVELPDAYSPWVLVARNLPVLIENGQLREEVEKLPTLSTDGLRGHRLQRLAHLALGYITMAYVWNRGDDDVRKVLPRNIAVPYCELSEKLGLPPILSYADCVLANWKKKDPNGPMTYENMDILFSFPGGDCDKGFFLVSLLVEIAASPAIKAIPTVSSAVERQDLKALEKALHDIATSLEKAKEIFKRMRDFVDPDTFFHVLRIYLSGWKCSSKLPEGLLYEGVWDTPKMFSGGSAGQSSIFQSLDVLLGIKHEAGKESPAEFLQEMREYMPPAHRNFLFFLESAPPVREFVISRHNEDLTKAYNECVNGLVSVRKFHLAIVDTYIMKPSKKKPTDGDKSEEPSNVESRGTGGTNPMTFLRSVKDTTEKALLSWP

[13] = Metabolic stability in rat liver microsomes assessed as parent compound remaining at 0.5 uM after 10 mins incubation by LC-MS/MS analysis relative to control; assay type: ADME, Microsome; details: read-out: Activity
[14] = tested on: UDP-glucuronosyltransferases (UGT); assay: Metabolic stability assessed as dog UGT-mediated metabolism by measuring half life; assay type: ADME, Canis lupus familiaris
Cytochrome P450 2C19 = Cytochrome P450 2C19 (Homo sapiens, UniProt P33261); assay: Inhibition of human CYP2C19
Sequence of Cytochrome P450 2C19 (P33261 whole entry): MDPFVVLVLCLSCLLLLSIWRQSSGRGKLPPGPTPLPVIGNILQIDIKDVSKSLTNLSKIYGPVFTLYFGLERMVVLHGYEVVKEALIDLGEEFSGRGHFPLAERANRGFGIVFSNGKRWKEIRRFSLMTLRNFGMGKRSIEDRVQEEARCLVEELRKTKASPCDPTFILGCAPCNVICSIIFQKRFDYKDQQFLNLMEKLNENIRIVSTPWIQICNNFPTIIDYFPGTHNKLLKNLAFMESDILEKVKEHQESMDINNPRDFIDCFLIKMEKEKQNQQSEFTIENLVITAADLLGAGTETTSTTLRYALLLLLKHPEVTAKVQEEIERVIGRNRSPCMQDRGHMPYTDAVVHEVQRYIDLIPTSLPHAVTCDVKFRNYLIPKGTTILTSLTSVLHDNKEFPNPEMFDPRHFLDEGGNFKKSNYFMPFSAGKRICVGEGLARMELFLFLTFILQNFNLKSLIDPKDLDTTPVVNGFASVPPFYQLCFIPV

[15] = AUC in dog at 1 mg/kg, iv; assay type: ADME, organism-based, Canis lupus familiaris; parameters: dose 1 mg/kg; details: in vivo
[16] = AUC in rat at 10 mg/kg, po; assay type: ADME, organism-based; parameters: dose 10 mg/kg; details: in vivo
[17] = AUC (0 to 24 hrs) in human SK-OV-3 cells xenografted in nu/nu mouse xenograft model measured in tumor at 20 mg/kg, po QD; assay type: ADME, organism-based; parameters: time < 24 hr, route oral, dose 20 mg/kg
[18] = AUC (0 to 24 hrs) in nu/nu mouse xenograft model xenografted with human SK-OV-3 cells measured in tumor at 180 mg/kg, po QD; assay type: ADME, organism-based; parameters: time < 24 hr, route oral, dose 180 mg/kg
[19] = AUC in cynomolgus monkey at 5 mg/kg, po; assay type: ADME, organism-based, Macaca fascicularis; parameters: dose 5 mg/kg; details: in vivo
Cytochrome P450 (CYP) [20] = biological target: Cytochrome P450 (CYP) (Homo sapiens, UniProt P04798+P05177+P05181+P08684+P10632+P10635+P11509+P11712+P13584+P20813+P20815+P20853+P24462+P24903+P33260+P33261+P51589+P78329+P98187+Q02928+Q08477+Q16678+Q16696+Q5TCH4+Q6VVX0+Q7Z449+Q8TAV3+Q96SQ9+Q9HB55); assay: Metabolic stability assessed as human CYP-mediated metabolism by measuring half life; assay type: ADME, protein assay
[21] = Apparent permeability across apical to basolateral side in human Caco-2 cells; assay type: ADME, cell-based
[22] = Clearance in cynomolgus monkey at 1 mg/kg, iv; assay type: ADME, organism-based, Macaca fascicularis; details: in vivo
[23] = AUC in cynomolgus monkey at 1 mg/kg, iv; assay type: ADME, organism-based, Macaca fascicularis; parameters: dose 1 mg/kg; details: in vivo
[24] = Metabolic stability in human liver microsomes assessed as parent compound remaining at 0.5 uM after 10 mins incubation by LC-MS/MS analysis relative to control; assay type: ADME, Microsome; details: read-out: Activity
[25] = Drug metabolism in dog hepatocytes assessed as demethylated metabolite formation; assay type: ADME, cell-based, Canis lupus familiaris, Hepatocyte
[26] = biological target: Voltage-gated inwardly rectifying potassium channel KCNH2 (Homo sapiens, UniProt Q12809); assay: Inhibition of hERG (unknown origin)
Sequence of Voltage-gated inwardly rectifying potassium channel KCNH2 (Q12809 whole entry): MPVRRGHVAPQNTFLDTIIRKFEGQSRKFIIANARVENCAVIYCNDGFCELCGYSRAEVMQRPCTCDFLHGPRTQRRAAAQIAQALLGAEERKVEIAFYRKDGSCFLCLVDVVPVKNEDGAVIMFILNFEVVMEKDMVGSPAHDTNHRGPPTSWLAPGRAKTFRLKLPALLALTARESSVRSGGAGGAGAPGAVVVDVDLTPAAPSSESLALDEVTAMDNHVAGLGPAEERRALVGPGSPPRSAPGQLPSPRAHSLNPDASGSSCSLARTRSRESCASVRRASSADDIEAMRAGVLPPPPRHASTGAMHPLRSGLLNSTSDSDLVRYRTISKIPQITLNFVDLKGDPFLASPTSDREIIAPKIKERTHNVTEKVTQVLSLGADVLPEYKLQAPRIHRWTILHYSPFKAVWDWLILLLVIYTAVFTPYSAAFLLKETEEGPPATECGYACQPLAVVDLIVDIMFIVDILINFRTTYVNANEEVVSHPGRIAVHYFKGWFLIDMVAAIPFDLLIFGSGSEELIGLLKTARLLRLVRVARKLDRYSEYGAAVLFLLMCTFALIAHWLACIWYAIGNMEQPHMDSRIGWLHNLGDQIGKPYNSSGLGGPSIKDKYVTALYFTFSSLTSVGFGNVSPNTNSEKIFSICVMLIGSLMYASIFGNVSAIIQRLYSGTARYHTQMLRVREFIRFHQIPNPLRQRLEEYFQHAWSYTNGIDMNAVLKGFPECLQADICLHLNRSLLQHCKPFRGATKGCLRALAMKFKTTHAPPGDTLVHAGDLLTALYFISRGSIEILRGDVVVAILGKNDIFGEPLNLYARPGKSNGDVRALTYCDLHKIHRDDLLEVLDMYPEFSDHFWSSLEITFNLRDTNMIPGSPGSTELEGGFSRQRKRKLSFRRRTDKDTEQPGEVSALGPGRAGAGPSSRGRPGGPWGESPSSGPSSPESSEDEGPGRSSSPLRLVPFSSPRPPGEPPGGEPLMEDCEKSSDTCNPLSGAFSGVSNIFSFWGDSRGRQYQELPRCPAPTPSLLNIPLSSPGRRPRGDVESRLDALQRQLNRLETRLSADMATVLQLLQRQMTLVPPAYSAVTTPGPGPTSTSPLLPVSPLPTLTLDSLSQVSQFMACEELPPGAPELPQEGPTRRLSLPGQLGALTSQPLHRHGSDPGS

Cytochrome P450 2C8 = biological target: T2, Cytochrome P450 2C8 (Homo sapiens, UniProt P10632); assay: Inhibition of human CYP2C8
T2 sequence (P10632 whole entry): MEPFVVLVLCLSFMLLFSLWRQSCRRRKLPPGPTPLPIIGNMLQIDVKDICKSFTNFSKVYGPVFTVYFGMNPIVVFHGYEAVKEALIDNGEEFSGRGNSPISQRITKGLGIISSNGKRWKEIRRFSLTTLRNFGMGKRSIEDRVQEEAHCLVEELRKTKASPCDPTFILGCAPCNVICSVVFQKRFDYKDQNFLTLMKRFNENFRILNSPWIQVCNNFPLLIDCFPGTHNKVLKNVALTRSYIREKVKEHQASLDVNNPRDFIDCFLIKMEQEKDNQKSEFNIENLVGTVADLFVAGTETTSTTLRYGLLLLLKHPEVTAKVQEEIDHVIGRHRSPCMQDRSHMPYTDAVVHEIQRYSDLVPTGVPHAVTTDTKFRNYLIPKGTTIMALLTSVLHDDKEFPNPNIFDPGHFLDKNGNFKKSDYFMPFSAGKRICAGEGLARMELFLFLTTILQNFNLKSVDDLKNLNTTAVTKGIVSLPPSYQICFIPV

[27] = tested on: UDP-glucuronosyltransferases (UGT); assay: Metabolic stability assessed as cynomolgus monkey UGT-mediated metabolism by measuring half life; assay type: ADME, Macaca fascicularis
[28] = AUC in mouse at 1 mg/kg, iv; assay type: ADME, organism-based; parameters: dose 1 mg/kg; details: in vivo
[29] = biological target: UDP-glucuronosyltransferases (UGT) (Homo sapiens, UniProt O60656+O75310+O75795+P06133+P0DTE4+P0DTE5+P16662+P19224+P22309+P22310+P35503+P35504+P36537+P54855+Q6UWM9+Q9BY64+Q9HAW7+Q9HAW8+Q9HAW9); assay: Metabolic stability assessed as human UGT-mediated metabolism by measuring half life; assay type: ADME, protein assay
[30] = Volume of steady state distribution in dog at 1 mg/kg, iv; assay type: ADME, organism-based, Canis lupus familiaris; details: in vivo, read-out: Vdss
[31] = Half life in mouse at 1 mg/kg, iv; assay type: ADME, organism-based; details: in vivo
Cytochrome P450 (CYP) [32] = assay: Metabolic stability assessed as mouse CYP-mediated metabolism by measuring half life; assay type: ADME
[33] = AUC in dog at 5 mg/kg, po; assay type: ADME, organism-based, Canis lupus familiaris; parameters: dose 5 mg/kg; details: in vivo
[34] = Clearance in dog at 1 mg/kg, iv; assay type: ADME, organism-based, Canis lupus familiaris; details: in vivo
[35] = Volume of steady state distribution in mouse at 1 mg/kg, iv; assay type: ADME, organism-based; details: in vivo, read-out: Vdss
[36] = Volume of steady state distribution in rat at 0.5 mg/kg, iv; assay type: ADME, organism-based; details: in vivo, read-out: Vdss
[37] = Half life in rat at 0.5 mg/kg, iv; assay type: ADME, organism-based; details: in vivo
[38] = Clearance in mouse at 1 mg/kg, iv; assay type: ADME, organism-based; details: in vivo
[39] = tested on: UDP-glucuronosyltransferases (UGT); assay: Metabolic stability assessed as mouse UGT-mediated metabolism by measuring half life; assay type: ADME
[40] = Oral bioavailability in dog at 5 mg/kg; assay type: ADME, organism-based, Canis lupus familiaris; details: in vivo
[41] = Oral bioavailability in cynomolgus monkey at 5 mg/kg; assay type: ADME, organism-based, Macaca fascicularis; details: in vivo
[42] = Oral bioavailability in mouse at 10 mg/kg; assay type: ADME, organism-based; details: in vivo
[43] = Oral bioavailability in rat at 10 mg/kg; assay type: ADME, organism-based; details: in vivo
[44] = Drug metabolism in rat hepatocytes assessed as demethylated metabolite formation; assay type: ADME, cell-based, Hepatocyte
hERG (KCNH2) = hERG (KCNH2) (Homo sapiens, UniProt Q12809); assay: Inhibition of hERG (unknown origin) at 30 uM relative to control
Sequence of hERG (KCNH2) (Q12809 whole entry): as the sequence (Q12809 whole entry) above

Cytochrome P450 (CYP) [45] = assay: Metabolic stability assessed as cynomolgus monkey CYP-mediated metabolism by measuring half life; assay type: ADME, Macaca fascicularis
[46] = Drug metabolism in cynomolgus monkey hepatocytes assessed as demethylated metabolite formation; assay type: ADME, cell-based, Macaca fascicularis, Hepatocyte
[47] = Apparent permeability across basolateral to apical side in human Caco-2 cells; assay type: ADME, cell-based
Cytochrome P450 (CYP) [48] = assay: Metabolic stability assessed as rat CYP-mediated metabolism by measuring half life; assay type: ADME
[49] = Metabolic stability in mouse liver microsomes assessed as parent compound remaining at 0.5 uM after 10 mins incubation by LC-MS/MS analysis relative to control; assay type: ADME, Microsome; details: read-out: Activity
Cytochrome P450 2C9 = Cytochrome P450 2C9 (Homo sapiens, UniProt P11712); assay: Inhibition of human CYP2C9
Sequence of Cytochrome P450 2C9 (P11712 whole entry): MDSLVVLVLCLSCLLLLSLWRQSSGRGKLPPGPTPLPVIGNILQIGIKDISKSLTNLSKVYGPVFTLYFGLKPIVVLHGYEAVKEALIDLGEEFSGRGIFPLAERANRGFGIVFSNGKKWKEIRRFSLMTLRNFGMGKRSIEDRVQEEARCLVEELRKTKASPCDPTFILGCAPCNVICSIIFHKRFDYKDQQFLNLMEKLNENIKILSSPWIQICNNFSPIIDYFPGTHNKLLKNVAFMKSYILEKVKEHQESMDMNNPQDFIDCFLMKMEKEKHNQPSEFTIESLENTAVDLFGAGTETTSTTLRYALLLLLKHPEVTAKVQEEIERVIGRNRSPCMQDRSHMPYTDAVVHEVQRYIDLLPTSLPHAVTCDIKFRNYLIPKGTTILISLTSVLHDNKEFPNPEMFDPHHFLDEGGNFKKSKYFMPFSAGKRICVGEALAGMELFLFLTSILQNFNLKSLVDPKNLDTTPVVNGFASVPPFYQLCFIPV

[50] = AUC in mouse at 10 mg/kg, po; assay type: ADME, organism-based; parameters: dose 10 mg/kg; details: in vivo
[51] = AUC (0 to 24 hrs) in human SK-OV-3 cells xenografted in nu/nu mouse xenograft model measured in tumor at 60 mg/kg, po QD; assay type: ADME, organism-based; parameters: time < 24 hr, route oral, dose 60 mg/kg
[52] = biological target: T1, Indoleamine 2,3-dioxygenase 1; assay: Inhibition of IDO1 in IFNgamma/LPS-stimulated human whole blood preincubated for 4 hrs followed by IFNgamma/LPS stimulation and incubated for 18 hrs by Rapid-fire mass spectrometry analysis; assay type: tissue-based

CC[C@@H](NC(=O)c1ccc(OC)nc1)[C@H]1CC[C@@H](c2ccnc(OC)c2C(F)F)CC1
clearance [1]: 15 mL/min/kg | IC50 [2]: 2 nM | half-life (Cytochrome P450 (CYP) [3]): 7 min | half-life [4]: 14 h | Papp [5]: 107 ×10⁻⁶ cm/s | AUC at 24 h [6]: 13 µM·h | Vd [7]: 4.5 L/kg | Drug metabolism [8]: Metabolite_Detected | half-life [9]: > 2 h | half-life [10]: 11 h | AUC [11]: 1.3 µM·h | IC50 [12]: 14 nM | remaining at 10 min, 0.5 µM [13]: 90% | half-life [14]: > 2 h | IC50 (Cytochrome P450 2C19): 9500 nM | AUC [15]: 2.3 µM·h | AUC [16]: 8.7 µM·h | AUC at 24 h [17]: 7.9 µM·h | AUC at 24 h [18]: 13 µM·h | AUC [19]: 0.029 µM·h | half-life (Cytochrome P450 (CYP) [20]): 0.533 h | Papp A→B [21]: 12.2 ×10⁻⁶ cm/s | clearance [22]: 29 mL/min/kg | AUC [23]: 1.3 µM·h | remaining at 10 min, 0.5 µM [24]: 87% | Drug metabolism [25]: Metabolite_Detected | IC50 [26]: 17400 nM | IC50 (Cytochrome P450 2C8): 4010 nM | half-life [27]: > 2 h | AUC [28]: 1.2 µM·h | half-life [29]: > 2 h | Vd [30]: 9 L/kg | half-life [31]: 5 h | half-life (Cytochrome P450 (CYP) [32]): 0.183 h | AUC [33]: 3.2 µM·h | clearance [34]: 18 mL/min/kg | Vd [35]: 6.2 L/kg | Vd [36]: 4 L/kg | half-life [37]: 7.1 h | clearance [38]: 33 mL/min/kg | half-life [39]: > 2 h | bioavailability [40]: 28% | F [41]: 4.5% | bioavailability [42]: 33% | bioavailability [43]: 34% | Drug metabolism [44]: Metabolite_Detected | inhibition at 30 µM (hERG (KCNH2)): 61% | half-life (Cytochrome P450 (CYP) [45]): 3 min | Drug metabolism [46]: Metabolite_Detected | Papp B→A [47]: 5.6 ×10⁻⁶ cm/s | half-life (Cytochrome P450 (CYP) [48]): 0.333 h | remaining at 10 min, 0.5 µM [49]: 60% | IC50 (Cytochrome P450 2C9): 1890 nM | AUC [50]: 3.9 µM·h | AUC at 24 h [51]: 9.2 µM·h | IC50 [52]: 2.3 nM
